Earlier results as cited in patent EP0972007B1, “DETERGENT COMPOSITIONS” (UNILEVER PLC, priority 1997, dated 1998).

Details: for Water Solubility (g/100g): grams of solid to form a saturated solution in 100 grams of water at 20°C

## O=BO[O-].[Na+] [Sodium perborate anhydrous]
  Water Solubility (g/100g): 3.7 g/100g

## NC(N)=O [Urea]
At 20°C
  solubility in water: exceeding 100 gms per 100ml water
  Water Solubility (g/100g): >100 g/100g

## O=P(O)(O)OP(=O)(O)OP(=O)(O)O [Sodium tripolyphosphate anhydrous]
  Water Solubility (g/100g): 15 g/100g
